Measured values published in publication PMC9116245, “New 1,2,3-triazole linked ciprofloxacin-chalcones induce DNA damage by inhibiting human topoisomerase I& II and tubulin polymerization” (Journal of Enzyme Inhibition and Medicinal Chemistry, 2022).
Like-named read-outs stand apart in the source and are kept apart here.

Experiments:
Human topoisomerase I = biological target: T1, Human topoisomerase I (Homo sapiens, UniProt P11387); assay: DNA relaxation assay (gel electrophoresis); assay type: biochemical; details: compounds at their IC50 values
T1 construct: purchased Topogen Inc., USA TG-1015
T1 sequence (P11387 1-765): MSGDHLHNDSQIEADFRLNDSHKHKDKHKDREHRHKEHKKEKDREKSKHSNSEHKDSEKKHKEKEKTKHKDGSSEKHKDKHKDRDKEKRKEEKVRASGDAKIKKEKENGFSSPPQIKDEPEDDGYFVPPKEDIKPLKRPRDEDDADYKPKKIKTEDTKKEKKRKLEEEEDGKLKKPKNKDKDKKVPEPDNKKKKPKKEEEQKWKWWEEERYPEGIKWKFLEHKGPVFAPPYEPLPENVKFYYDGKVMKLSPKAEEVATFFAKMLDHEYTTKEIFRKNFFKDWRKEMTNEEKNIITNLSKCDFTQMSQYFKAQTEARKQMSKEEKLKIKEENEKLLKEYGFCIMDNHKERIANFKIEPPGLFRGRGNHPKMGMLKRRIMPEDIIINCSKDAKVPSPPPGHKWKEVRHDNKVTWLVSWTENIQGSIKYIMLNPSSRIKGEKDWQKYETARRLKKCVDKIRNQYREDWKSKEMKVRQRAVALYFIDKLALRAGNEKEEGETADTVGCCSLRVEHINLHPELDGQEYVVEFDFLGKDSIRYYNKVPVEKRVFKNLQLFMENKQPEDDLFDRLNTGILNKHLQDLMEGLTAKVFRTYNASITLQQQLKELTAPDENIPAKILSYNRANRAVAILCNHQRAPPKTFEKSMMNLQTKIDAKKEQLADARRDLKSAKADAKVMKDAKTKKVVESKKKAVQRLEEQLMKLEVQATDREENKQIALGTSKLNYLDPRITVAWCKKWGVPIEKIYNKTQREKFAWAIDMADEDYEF
Experimental: Based on our design, we hypothesised that the new CP hybrids 4a-j could act as multi-target ligands that can block the catalytic activity of topoisomerases I (Topo-I), topoisomerases (Topo-II), and inhibit tubulin polymerisation as possible targets for the anti-proliferative activity. First, the Topo-I activity was tested by the DNA relaxation assay. The supercoiled plasmid has been utilised as a substrate in the relaxation assay to study the inhibition of DNA Topo-I activity. […] Two different assays were used to examine the inhibitory activity of IC50 of the CP hybrids against Human topoisomerase I. Firstly; Gel electrophoresis-based assay (DNA relaxation assay) was performed following the manufacturer's protocol (TG-1015, Topogen Inc., USA). Secondly, the inhibitory activity of compounds 4a, 4b, 4e, 4i, 4j, and camptothecin to human topoisomerase I was analysed by Human DNA Topoisomerase I Assay Kit (ProFoldin, Hudson, MA, USA) with recombinant human DNA topoisomerase I (Sigma-Aldrich) according to the manufacturer’s protocol.

polymerised tubulin = assay: Western blot of polymerised tubulin in HCT116 cells; assay type: cell-based, human; details: HCT116, IC50 values of compounds
Experimental: The process of tubulin polymerisation in the cells is important for the completion of mitosis and is targeted for cancer treatment. It has been reported that the suppression of tubulin polymerisation will arrest the cells at the G2/M and it eventually leads to cell death. To test the tubulin-disruptive effect of the CP hybrids, HCT116 cells were analysed by immunocytochemistry. HCT116 cells were incubated for 36 h with IC50 of the CP hybrids (4a, 4b, 4e, 4i, and 4j), nocodazole (a well-known tubulin polymerisation inhibitor, as a positive control), DMSO or Paclitaxel (a well-known tubulin polymerisation inducer, as a negative control), and tubulin was visualised by immunofluorescence microscopy. An antibody for α-tubulin was used. […] Moreover, a Western blot was performed to verify the tubulin polymerisation inhibition ability of the synthesised compounds (Figure 8(B)). The level of polymerised tubulin was decreased in HCT116 cells treated with IC50 values of CP hybrids 4a, 4b, 4e, 4i, 4j, or nocodazole.
Western blotting analysis for HCT116 cells was performed according to the reported procedure in the literature[77–79] to determine the effects of CP hybrids; 4a, 4b, 4e, 4i, and 4j on the expression of polymerised tubulin, γH2AX, p-ATR, p-CHK1, and p-Cdc25C by using the appropriate antibody. See Supplementary Appendix A.

MCF7 = assay type: cell-based, human
[1] = test system: Human Embryonic Kidney (HEK) 293 cells; assay: Cytotoxicity assay with non-cancerous cells (MTS); assay type: cell-based; details: HEK293 versus cancer cells
Experimental: To evaluate the selectivity and safety profile of the synthesised CP hybrids, a cytotoxicity experiment of compounds 4a, 4b, 4e, 4i, and 4j was performed using normal Human Embryonic Kidney (HEK) 293 cells.
To evaluate the selectivity and safety profile of the synthesised ciprofloxacin-chalcone hybrids, a cytotoxicity experiment was performed using a non-cancerous cell line. Briefly, Human Embryonic Kidney (HEK) 293 cells (ATCC, Manassas, VA, USA) were cultured in a Dulbecco’s Modified Eagle Medium (DEMEM) supplemented with 1 mM sodium pyruvate, 10 mM HEPES buffer solution, 2 mM GlutaMAX (Gibco, Grand Island, NY, USA), 50 µg/mL gentamycin sulphate (Dubuque, IA, USA), and 10% foetal bovine serum (ThermoFisher Scientific, USA). Cells were seeded in 96-well plates and incubated overnight in a humidified atmosphere with 5% CO2 at 37 °C. After 24 h, cells were treated with different concentrations (0.01–100 µM) of ciprofloxacin-chalcone hybrids. Also, DMSO and doxorubicin were used as negative and positive controls, respectively. After 72 h, old medium containing treatments were removed, and fresh medium and MTS reagents (CellTiter 96® AQueous One Solution Cell Proliferation Assay, Promega, Madison, WI, USA) were added. […] After 2 h, the absorbance was measured at 490 nm using a Spectra Max plus 384 Microplate reader (Molecular Devices, Sunnyvale, CA, USA) [74]. […]

MDA-MB-435 = assay type: cell-based; details: Homo sapiens
BT-549 = assay type: cell-based; details: Homo sapiens
SR = assay type: cell-based, human
HOP-92 = assay type: cell-based; details: Homo sapiens
A498 = assay type: cell-based; details: Homo sapiens
[2] = test system: 59 human cancer cell-lines; assay type: cell-based
786-0 = assay type: cell-based; details: Homo sapiens
NCI-H460 = assay type: cell-based; details: Homo sapiens
SK-MEL-2 = assay type: cell-based; details: Homo sapiens
T-47D = assay type: cell-based; details: Homo sapiens, T47D
MDA-MB-231/ATCC = assay type: cell-based
SK-OV-3 = assay type: cell-based; details: Homo sapiens
UACC-257 = assay type: cell-based; details: Homo sapiens
CAKI-1 = assay type: cell-based; details: Homo sapiens
[3] = read-out: LC50 (the source's name)
[4] = panel mean graph midpoint, Units Molar

SMILES: O=C(/C=C/c1ccccc1)c1ccc(-n2cc(CN3CCN(c4cc5c(cc4F)c(=O)c(C(=O)O)cn5C4CC4)CC3)nn2)cc1 [Compound 4a, (E) 7-(4-((1–(4-Cinnamoylphenyl)-1H-1,2,3-triazol-4-yl)methyl)piperazin-1-yl)-1-cyclopropyl-6-fluoro-4-oxo-1,4-dihydroquinoline-3-carboxylic acid]
- Topo-I catalytic activity, DNA relaxation (Human topoisomerase I): could inhibit Topo-I catalytic activity
- level of polymerised tubulin, Western blot (polymerised tubulin): decreased

SMILES: O=C(/C=C/c1cccc(Cl)c1)c1ccc(-n2cc(CN3CCN(c4cc5c(cc4F)c(=O)c(C(=O)O)cn5C4CC4)CC3)nn2)cc1 [Compound 4b, (E)-7-(4-((1–(4-(3-(3-chlorophenyl)acryloyl)phenyl)-1H-1,2,3-triazol-4-yl)methyl)piperazin-1-yl)-1-cyclopropyl-6-fluoro-4-oxo-1,4-dihydroquinoline-3-carboxylic acid]
- Topo-I catalytic activity, DNA relaxation (Human topoisomerase I): could inhibit Topo-I catalytic activity
- level of polymerised tubulin, Western blot (polymerised tubulin): decreased

SMILES: O=C(/C=C/c1ccc(F)cc1)c1ccc(-n2cc(CN3CCN(c4cc5c(cc4F)c(=O)c(C(=O)O)cn5C4CC4)CC3)nn2)cc1 [Compound 4e, (E)-1-cyclopropyl-6-fluoro-7–(4-((1–(4-(3-(4-fluorophenyl)acryloyl)phenyl)-1H-1,2,3-triazol-4-yl)methyl)piperazin-1-yl)-4-oxo-1,4-dihydroquinoline-3-carboxylic acid]
- Topo-I catalytic activity, DNA relaxation (Human topoisomerase I): could inhibit Topo-I catalytic activity
- level of polymerised tubulin, Western blot (polymerised tubulin): decreased

SMILES: COc1ccc(/C=C/C(=O)c2ccc(-n3cc(CN4CCN(c5cc6c(cc5F)c(=O)c(C(=O)O)cn6C5CC5)CC4)nn3)cc2)cc1OC [Compound 4i, (E)-1-cyclopropyl-7-(4-((1-(4-(3–(3,4-dimethoxyphenyl)acryloyl)phenyl)-1H-1,2,3-triazol-4-yl)methyl)piperazin-1-yl)-6-fluoro-4-oxo-1,4-dihydroquinoline-3-carboxylic acid]
- Topo-I catalytic activity, DNA relaxation (Human topoisomerase I): could inhibit Topo-I catalytic activity
- level of polymerised tubulin, Western blot (polymerised tubulin): decreased

SMILES: COc1cc(/C=C/C(=O)c2ccc(-n3cc(CN4CCN(c5cc6c(cc5F)c(=O)c(C(=O)O)cn6C5CC5)CC4)nn3)cc2)cc(OC)c1OC [Compound 4j, (E)-1-cyclopropyl-6-fluoro-4-oxo-7–(4-((1–(4-(3-(3,4,5-trimethoxyphenyl)acryloyl)phenyl)-1H-1,2,3-triazol-4-yl)methyl)piperazin-1-yl)-1,4-dihydroquinoline-3-carboxylic acid]
- Topo-I catalytic activity, DNA relaxation (Human topoisomerase I): could inhibit Topo-I catalytic activity
- GI50 (MCF7; Homo sapiens, MCF7, MCF7): 0.396 µM
- CC50 (MCF7; Homo sapiens, MCF7, read-out: LC50 (the source's name)): > 100 µM
- GI50 (MCF7; MCF7): 0.39 µM
- selectivity index compared with Doxorubicin [1]: six-fold better
- GI50 (MDA-MB-435): 1.49 µM
- CC50 (MDA-MB-435; [3]): > 100 µM
- GI50 (BT-549): 1.71 µM
- GI50 (SR): 0.43 µM
- GI50 (SR; Homo sapiens): 0.434 µM
- CC50 (SR; Homo sapiens, read-out: LC50 (the source's name)): > 100 µM
- GI50 (HOP-92): 11.7 µM
- CC50 (HOP-92; [3]): > 100 µM
- GI50 (A498): 4.18 µM
- CC50 (A498; [3]): 39.8 µM
- GI50 ([2]; Homo sapiens, range over all cancer cell lines): 0.21 to 21.1 µM
- Log10GI50 _MID [2, 4]: -5.58
- Log10LC50 _MID [2, 4]: -4.06
- Log10TGI _MID [2, 4]: -4.58
- GI50 (786-0): 1.67 µM
- GI50 (NCI-H460): 2.4 µM
- CC50 (NCI-H460; [3]): > 100 µM
- GI50 (SK-MEL-2): 21.1 µM
- CC50 (SK-MEL-2; [3]): > 100 µM
- level of polymerised tubulin, Western blot (polymerised tubulin): decreased
- GI50 (T-47D): 3.16 µM
- CC50 (T-47D; [3]): > 100 µM
- GI50 (MDA-MB-231/ATCC; Homo sapiens, MDA-MB-231, MDA-MB231/ATCC): 3.2 µM
- CC50 (MDA-MB-231/ATCC; Homo sapiens, MDA-MB-231/ATCC, read-out: LC50 (the source's name)): > 100 µM
- TGI (MDA-MB-231/ATCC; MDA-MB231/ATCC): >100 µM
- TGI (MDA-MB-231/ATCC; MDA-MB-231/ATCC): > 1.00E-4 Molar
- GI50 (SK-OV-3): 7.09 µM
- CC50 (SK-OV-3; [3]): > 100 µM
- GI50 (UACC-257): 6.34 µM
- LC50 (UACC-257): > 100 µM
- GI50 (CAKI-1): 5.1 µM
- CC50 (CAKI-1; [3]): 51.7 µM
